The text below walks through data of paper PMC12348157, “Neuroprotective Evaluation of Murraya Carbazoles: In Vitro and Docking Insights into Their Anti-AChE and Anti-Aβ Activities” (Molecules, 2025).

Molecules are shown by their SMILES. In brackets after ≈: the same amount, converted by molar mass. Several values for one entry are separate records, joined by “and”; a condition that tells them apart may be missing. Equal entries are not always repeated. Where two headings read alike, the source gives them in different places.

Assay [1] deals with T1, Acetylcholinesterase (Electrophorus electricus, Type VI-S) (Electrophorus electricus, UniProt O42275). The experiment in a line: AChE inhibition kinetics (Lineweaver–Burk / Michaelis–Menten). Format: biochemical. The settings on record: for Inhibition Type: Lineweaver–Burk plots. How it is done:
The inhibition curves were plotted using linear regression (Lineweaver–Burk plot) on GraphPad Prism 10.3 (Figure 8).
The Km and Vmax values were calculated using a non-linear fit (Michaelis–Menten equation) (Table 6). The Ki value (inhibitor constant), the dissociation constant describing the binding affinity between the inhibitor and the enzyme, was calculated as described previously.
AChE inhibition was measured using Ellman’s method with slight modifications. The compounds were incubated with the enzyme and the substrate (10 mM ATC) for 15 min. Later, 15 mM DTNB was added, and the plate was incubated for 10 min at 37 °C. The absorbance was measured at 412 nm using a multimode reader (Synergy-H1 BioTek, Agilent, Santa Clara, CA, USA). Galantamine served as a positive control. Percent inhibition was computed using the equation: […]
Statistical analysis was performed by one-way ANOVA followed by Dunnett’s post hoc test. The data were registered as the mean ± SD of at least three experiments. The symbol *** represent p < 0.001 significance compared to the control. The IC50 values were determined using non-linear regression, and the Lineweaver–Burk plots were drawn using linear regression analysis by GraphPad Prism 10.3.

The target of assay [2] is T1, Acetylcholinesterase (Electrophorus electricus, Type VI-S). The experiment in a line: biochemical. The settings on record: Electrophorus electricus AChE, mean of three experiments ± SD; read-out: IC50 anti-AChE activity (converted).
The target in assay [3] is T2, Aβ1-42 fibrillization (Homo sapiens, UniProt P05067).
T2 construct: Aβ1–42 was purchased from GenicBio Inc; purchased GenicBio Inc
Nature of the assay: Thioflavin T (ThT) anti-Aβ fibrillization assay. The settings on record: mean ± SD (n = 3); for Aβ fibrillization inhibition: samples 500 μg/mL, 24 h. The class given is biochemical.

In assay [4] the test system is AChE. The settings on record: cited from earlier work.
Assay [5] has as its system LPS-treated animal models. The settings on record: cited from earlier work.
Assay [6] relates to microglial cells. The conditions noted are these: cited from earlier work.
[7] abbreviates: listed as 9-methyl-9H-carbazole-2-carbaldehyde.
[8] abbreviates: inhibitor 10 μg/mL, read-out: Ki.
The mark [9] stands for this setting: inhibitor 30 μg/mL, read-out: Ki.
Where [10] appears, read: no inhibitor concentration stated, read-out: Ki value.
Where [11] appears, read: pre-treatment, LPS-treated animal models.

T1 sequence (O42275 24-633): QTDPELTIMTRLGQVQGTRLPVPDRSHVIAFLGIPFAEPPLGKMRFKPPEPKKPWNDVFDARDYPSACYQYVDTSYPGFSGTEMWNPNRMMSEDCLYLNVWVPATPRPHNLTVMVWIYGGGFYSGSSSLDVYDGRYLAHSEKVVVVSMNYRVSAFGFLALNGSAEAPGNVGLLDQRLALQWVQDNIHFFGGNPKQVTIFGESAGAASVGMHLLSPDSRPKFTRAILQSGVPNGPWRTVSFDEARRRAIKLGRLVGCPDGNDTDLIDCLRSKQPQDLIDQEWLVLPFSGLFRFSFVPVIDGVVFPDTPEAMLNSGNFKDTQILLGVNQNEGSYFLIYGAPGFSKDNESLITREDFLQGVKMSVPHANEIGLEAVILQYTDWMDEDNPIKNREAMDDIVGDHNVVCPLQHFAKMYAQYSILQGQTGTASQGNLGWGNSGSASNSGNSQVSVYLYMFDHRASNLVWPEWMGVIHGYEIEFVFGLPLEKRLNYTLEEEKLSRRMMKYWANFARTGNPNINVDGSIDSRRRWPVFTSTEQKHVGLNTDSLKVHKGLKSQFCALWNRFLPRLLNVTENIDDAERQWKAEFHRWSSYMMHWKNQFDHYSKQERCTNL
T2 sequence (P05067 672-713): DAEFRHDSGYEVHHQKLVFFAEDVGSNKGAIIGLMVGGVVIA

With `Cn1c2ccccc2c2ccc(C=O)cc21` [9-Methyl-9H-carbazole-2-carbaldehyde, 9-methyl-9H-carbazole-2-carbaldehyde], the “Inhibition Type” value in assay [1] is “Competitive”; in assay [1] (setting [7]) it was “Competitive inhibition”. Further, the Vmax in assay [1] (inhibitor 10 μg/mL) was 0.3874 µmol/min/mg; in assay [1] (inhibitor 30 μg/mL), 0.3634 µmol/min/mg. In addition, the Ki in assay [1] (setting [8]) was 29200 nM; in assay [1] (setting [9]), 31400 nM; in assay [1] (setting [10]) it was about 30000 nM. Also, in assay [2], the IC50 is 37600 nM. Besides, the Aβ fibrillization inhibition result in assay [3] is reported as “did not show any inhibition”; in assay [3] (setting [7]), “no inhibition”.
`COc1ccc2c3c1O[C@H]1C[C@@H](O)C=C[C@@]31CCN(C)C2` [Galantamine, galantamine]: in assay [4], the “IC50 anti-AChE, previously reported value” is 0.31 µg/mL (≈ 1.08 µM).
`CC(C)=CCCC1(C)C=Cc2c(c(C)cc3c2[nH]c2ccccc23)O1` (centres unmarked) [Mahanimbine, mahanimbine]: the Aβ1-40 levels entry in assay [5] (animal model) is “reduced”. Further, the Cognition entry in assay [5] (animal model) is recorded as “improved cognition”. Further, in assay [5] (setting [11]), the “ACh levels in the brain” value is listed as “improved”. The “AChE in the brain” value in assay [5] (setting [11]) was “inhibited”. The “Inhibition Type” value in assay [1] is listed as “Non-Competitive”; in assay [1] (listed as mahanimbine), “non-competitive inhibition”. The Vmax amounted to 0.2098 µmol/min/mg in assay [1] (inhibitor 10 μg/mL) and 0.2231 µmol/min/mg in assay [1] (inhibitor 30 μg/mL). Further, the Ki in assay [1] (setting [8]) is 599 nM; in assay [1] (setting [9]), 599 nM; in assay [1] (setting [10]), 440 to 590 nM. Besides, in assay [2], the IC50 was ~603 nM and 603 nM. The compound further returned an Aβ fibrillization inhibition in assay [3] of 27.68 ± 2.71%.
As to `COc1cc(C)cc2c1[nH]c1ccccc12` [Murrayafoline A, murrayafoline A], the “Neuroprotective activity by reducing inflammation” value in assay [6] was “neuroprotective activity”. For the same compound, the “Inhibition Type” value in assay [1] was “Competitive”; in assay [1] (listed as murrayafoline A) it was “Competitive inhibition”. The Vmax in assay [1] (inhibitor 10 μg/mL) is 0.3826 µmol/min/mg; in assay [1] (inhibitor 30 μg/mL), 0.3753 µmol/min/mg. Besides, the Ki is 58700 nM in assay [1] (setting [8]), 61000 nM in assay [1] (setting [9]) and about 60000 nM in assay [1] (setting [10]). Moreover, the IC50 in assay [2] was 67800 nM. This compound also came in with an Aβ fibrillization inhibition in assay [3] of 33.60 ± 0.55%.
As to `COc1cc2[nH]c3c(C/C=C(\C)CCC=C(C)C)c(O)ccc3c2cc1C` [Murrayanol, murrayanol], the “Inhibition Type” value in assay [1] was “Competitive”; in assay [1] (listed as murrayanol), “Competitive inhibition”. The figures for the Vmax in assay [1] (inhibitor 10 μg/mL) and in assay [1] (inhibitor 30 μg/mL) were 0.3756 µmol/min/mg and 0.3613 µmol/min/mg, respectively. The Ki was 444 nM in assay [1] (setting [8]); 470 nM in assay [1] (setting [9]); ~450 nM and 450 nM and 440 to 590 nM in assay [1] (setting [10]). For the same compound, in assay [2], the IC50 is ~550 nM and 523 nM. In assay [3], this compound had an Aβ fibrillization inhibition of 40.83 ± 0.30%.
Take `O=S1(=O)OC(c2ccc(O)cc2)(c2ccc(O)cc2)c2ccccc21` [phenol red, reference compound]: the inhibition at 50 µM in assay [3] (phenol red 50 μM, read-out: Aβ fibrillization inhibition (positive control)) amounted to 67.86 ± 0.38%.

One may read the Vmax as the top rate of the reaction or transport when substrate is in excess. A word on the Ki: it is the equilibrium dissociation constant of an inhibitor or competing ligand from its target. A word on the IC50: it is the concentration at which inhibition is half-maximal. One may read the inhibition as the relative decrease from the control value, in per cent.
